Source: patent publication US8987250B2 (Gilead Sciences, Inc., priority 2012, dated 2015)
Like-named read-outs stand apart in the source and are kept apart here.

Test system: HIV-IIIb
Assay: Test A: Antiviral Assay in MT4 Cells
Assay type: cell-based
Conditions: Human immunodeficiency virus 1, IIIB, MT4, 120 h
In short: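 MT-4 cells pre-infected with HIV-IIIb (0.004 m.o.i.) at 37 °C, then exposed to 3-fold serial compound dilutions (10 concentrations, quadruplicate) in RPMI 1640/10% FBS. After 5 days at 37 °C, viability read by CellTiter-Glo luminescence.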

[1] = Table 2, MT-4 cells infected with HIV-IIIb, 5 days of incubation, CellTiter-Glo, read-out: EC50

SMILES | EC50 [1] | EC50
Cc1cc2nc(-c3ccc4nnn(C)c4c3)sc2c(-c2ccc(Cl)cc2)c1[C@H](OC(C)(C)C)C(=O)O [Compound 316, (S)-2-tert-butoxy-2-(7-(4-chlorophenyl)-5-methyl-2-(1-methyl-1H-benzo[d][1,2,3]triazol-6-yl)benzo[d]thiazol-6-yl)acetic acid] | 18 nM | –
Cc1cc2nc(-c3ccn4c(C)nnc4c3)sc2c(-c2ccc(Cl)cc2)c1[C@H](OC(C)(C)C)C(=O)O [Compound 317, (S)-2-tert-butoxy-2-(7-(4-chlorophenyl)-5-methyl-2-(3-methyl-[1,2,4]triazolo[4,3-a]pyridin-7-yl)benzo[d]thiazol-6-yl)acetic acid] | 13 nM | –
Cc1cc2nc(-c3ccn4nnc(C)c4c3)sc2c(-c2ccc(Cl)cc2)c1[C@H](OC(C)(C)C)C(=O)O [Compound 318, (S)-2-tert-butoxy-2-(7-(4-chlorophenyl)-5-methyl-2-(3-methyl-[1,2,3]triazolo[1,5-a]pyridin-5-yl)benzo[d]thiazol-6-yl)acetic acid] | 10 nM | –
Cc1cc2nc(-c3ccn4c(C)nc(C)c4c3)sc2c(-c2ccc(Cl)cc2)c1[C@H](OC(C)(C)C)C(=O)O [Compound 319, (S)-2-tert-butoxy-2-(7-(4-chlorophenyl)-2-(1,3-dimethylimidazo[1,5-a]pyridin-7-yl)-5-methylbenzo[d]thiazol-6-yl)acetic acid] | 5 nM | –
Cc1cc2nc(N3CCOC(C)(c4ccc(Cl)cc4)C3)sc2c(-c2ccc(Cl)cc2)c1[C@H](OC(C)(C)C)C(=O)O (stereo partly drawn) [Compound 322, (2S)-2-tert-butoxy-2-(7-(4-chlorophenyl)-2-(2-(4-chlorophenyl)-2-methylmorpholino)-5-methylbenzo[d]thiazol-6-yl)acetic acid] | 640 nM | –
Cc1ccc(C2(C)CN(c3nc4cc(C)c([C@H](OC(C)(C)C)C(=O)O)c(-c5ccc(Cl)cc5)c4s3)CCO2)cc1 (stereo partly drawn) [Compound 323, (2S)-2-tert-butoxy-2-(7-(4-chlorophenyl)-5-methyl-2-(2-methyl-2-p-tolylmorpholino)benzo[d]thiazol-6-yl)acetic acid] | 384 nM | –
Cc1cc2nc(N3CCOC(c4ccc5c(cnn5C)c4)C3)sc2c(-c2ccc(Cl)cc2)c1[C@H](OC(C)(C)C)C(=O)O (stereo partly drawn) [Compound 324, (2S)-2-tert-butoxy-2-(7-(4-chlorophenyl)-5-methyl-2-(2-(1-methyl-1H-indazol-5-yl)morpholino)benzo[d]thiazol-6-yl)acetic acid] | 13 nM | –
Cc1cc2nc(N3CCO[C@H](c4ccc5c(cnn5C)c4)C3)sc2c(-c2ccc(Cl)cc2)c1[C@H](OC(C)(C)C)C(=O)O [Compound 325, (S)-2-tert-butoxy-2-(7-(4-chlorophenyl)-5-methyl-2-((R)-2-(1-methyl-1H-indazol-5-yl)morpholino)benzo[d]thiazol-6-yl)acetic acid] | 10 nM | –
Cc1cc2nc(N3CCO[C@@H](c4ccc5c(cnn5C)c4)C3)sc2c(-c2ccc(Cl)cc2)c1[C@H](OC(C)(C)C)C(=O)O [Compound 326, (S)-2-tert-butoxy-2-(7-(4-chlorophenyl)-5-methyl-2-((S)-2-(1-methyl-1H-indazol-5-yl)morpholino)benzo[d]thiazol-6-yl)acetic acid] | 66 nM | –
Cc1cc2nc(N3CCOC(c4ccccc4)C3)sc2c(-c2ccc(Cl)cc2)c1[C@H](OC(C)(C)C)C(=O)O (stereo partly drawn) [Compound 327, (2S)-2-tert-butoxy-2-(7-(4-chlorophenyl)-5-methyl-2-(2-phenylmorpholino)benzo[d]thiazol-6-yl)acetic acid] | – | 162 nM
Cc1cc2nc(-c3ccc4nn(C5COC5)cc4c3)sc2c(-c2ccc(Cl)cc2)c1[C@H](OC(C)(C)C)C(=O)O [Compound 328, (S)-2-tert-butoxy-2-(7-(4-chlorophenyl)-5-methyl-2-(2-(oxetan-3-yl)-2H-indazol-5-yl)benzo[d]thiazol-6-yl)acetic acid] | 44 nM | –
Cc1cc2nc(-c3ccc4c(cnn4C4COC4)c3)sc2c(-c2ccc(Cl)cc2)c1[C@H](OC(C)(C)C)C(=O)O [Compound 329, (S)-2-tert-butoxy-2-(7-(4-chlorophenyl)-5-methyl-2-(1-(oxetan-3-yl)-1H-indazol-5-yl)benzo[d]thiazol-6-yl)acetic acid] | 14 nM | –
Cc1cc2nc(-c3ccc4c(c3)c(C(C)C)nn4C)sc2c(-c2ccc(Cl)cc2)c1[C@H](OC(C)(C)C)C(=O)O [Compound 330, (S)-2-tert-butoxy-2-(7-(4-chlorophenyl)-2-(3-isopropyl-1-methyl-1H-indazol-5-yl)-5-methylbenzo[d]thiazol-6-yl)acetic acid] | 19 nM | –
COc1ccc(-c2cc(-c3nc4cc(C)c([C@H](OC(C)(C)C)C(=O)O)c(-c5ccc(Cl)cc5)c4s3)c(C)nn2)cc1OC [Compound 331] | 44 nM | –
Cc1cc2nc(-c3ccnc(N4CCC(C)(O)CC4)n3)sc2c(-c2ccc(Cl)cc2)c1[C@H](OC(C)(C)C)C(=O)O [Compound 332] | 5 nM | –
Cc1cc2nc(-c3ccnc(N4CCC(N(C)C)CC4)n3)sc2c(-c2ccc(Cl)cc2)c1[C@H](OC(C)(C)C)C(=O)O [Compound 334] | 5 nM | –
Cc1cc2nc(-c3cc(-c4ccc5c(cnn5C)c4)nnc3C)sc2c(-c2ccc(Cl)cc2)c1[C@H](OC(C)(C)C)C(=O)O [Compound 335] | 14 nM | –
Cc1cc2nc(-c3ccnc(N4CCN(C)C[C@@H]4C)n3)sc2c(-c2ccc(Cl)cc2)c1[C@H](OC(C)(C)C)C(=O)O [Compound 337] | 4 nM | –
COc1ccc(-c2cc(-c3nc4cc(C)c([C@H](OC(C)(C)C)C(=O)O)c(-c5ccc(Cl)cc5)c4s3)cnn2)cc1OC [Compound 338] | 11 nM | –
Cc1cc2nc(-c3ccnc(N4CCN(C5CC5)CC4)n3)sc2c(-c2ccc(Cl)cc2)c1[C@H](OC(C)(C)C)C(=O)O [Compound 339] | 11 nM | –
Cc1cc2nc(-c3ccnc(C4CCOCC4)n3)sc2c(-c2ccc(Cl)cc2)c1[C@H](OC(C)(C)C)C(=O)O [Compound 340] | 9 nM | –
Cc1cc2nc(-c3ccnc(C4=CCOCC4)n3)sc2c(-c2ccc(Cl)cc2)c1[C@H](OC(C)(C)C)C(=O)O [Compound 341] | 14 nM | –
Cc1cc2nc(-c3ccnc(C4=CCN(C)CC4)n3)sc2c(-c2ccc(Cl)cc2)c1[C@H](OC(C)(C)C)C(=O)O [Compound 342] | 5 nM | –

SMILES | EC50 [1] | EC50
Cc1cc2nc(-c3ccnc(N4CCOCC4)n3)sc2c(-c2ccc(Cl)cc2)c1[C@H](OC(C)(C)C)C(=O)O [Compound 343] | 26 nM | –
Cc1cc2nc(-c3ccnc(N4CCN(C)CC4)n3)sc2c(-c2ccc(Cl)cc2)c1[C@H](OC(C)(C)C)C(=O)O [Compound 344] | 6 nM | –
COc1cc(-c2cc(-c3nc4cc(C)c([C@H](OC(C)(C)C)C(=O)O)c(-c5ccc(Cl)cc5)c4s3)ccn2)cnc1OC [Compound 345] | 28 nM | –
Cc1cc2nc(-c3ccnc(-c4cnn(C(C)(C)C)c4)n3)sc2c(-c2ccc(Cl)cc2)c1[C@H](OC(C)(C)C)C(=O)O [Compound 346] | 11 nM | –
Cc1cc2nc(-c3ccnc(-c4cnn(C)c4C)n3)sc2c(-c2ccc(Cl)cc2)c1[C@H](OC(C)(C)C)C(=O)O [Compound 347] | 42 nM | –
Cc1cc2nc(-c3ccc4c(cnn4C4CCOCC4)c3)sc2c(-c2ccc(Cl)cc2)c1[C@H](OC(C)(C)C)C(=O)O [Compound 348] | 30 nM | –
Cc1cc2nc(-c3ccc4[nH]ncc4c3)sc2c(-c2ccc(Cl)cc2)c1[C@H](OC(C)(C)C)C(=O)O [Compound 349] | 42 nM | –
COc1ccc(-c2cc(-c3nc4cc(C)c([C@H](OC(C)(C)C)C(=O)O)c(-c5ccc(Cl)cc5)c4s3)ccn2)cc1OC [Compound 350] | 14 nM | –
CCn1ncc2cc(-c3nc4cc(C)c([C@H](OC(C)(C)C)C(=O)O)c(-c5ccc(Cl)cc5)c4s3)ccc21 [Compound 351] | 21 nM | –
CCCn1ncc2cc(-c3nc4cc(C)c([C@H](OC(C)(C)C)C(=O)O)c(-c5ccc(Cl)cc5)c4s3)ccc21 [Compound 352] | 29 nM | –
Cc1cc2nc(-c3ccc4c(cnn4C(C)C)c3)sc2c(-c2ccc(Cl)cc2)c1[C@H](OC(C)(C)C)C(=O)O [Compound 353] | 31 nM | –
Cc1cc2nc(-c3ccc(-c4ccc(Br)cc4)cc3)sc2c(-c2ccc(Cl)cc2)c1[C@H](OC(C)(C)C)C(=O)O [Compound 354] | 1370 nM | –
COc1ncc(-c2ccc(-c3nc4cc(C)c([C@H](OC(C)(C)C)C(=O)O)c(-c5ccc(Cl)cc5)c4s3)cc2)cn1 [Compound 355] | 182 nM | –
Cc1cc2nc(-c3ccc(-c4cnc(=O)[nH]c4)cc3)sc2c(-c2ccc(Cl)cc2)c1[C@H](OC(C)(C)C)C(=O)O [Compound 356] | 3330 nM | –
Cc1cc2nc(-c3nccc(-c4ccc5c(cnn5C)c4)n3)sc2c(-c2ccc(Cl)cc2)c1[C@H](OC(C)(C)C)C(=O)O [Compound 357] | 12 nM | –
Cc1cc2nc(-c3ccc4c(n3)c(C)nn4C)sc2c(-c2ccc(Cl)cc2)c1[C@H](OC(C)(C)C)C(=O)O [Compound 358] | 241 nM | –
Cc1cc2nc(-c3ccc4nn(C)c(C)c4n3)sc2c(-c2ccc(Cl)cc2)c1[C@H](OC(C)(C)C)C(=O)O [Compound 359] | 21 nM | –
Cc1cc2nc(-c3ccc4nn(C5CCN(C)CC5)cc4n3)sc2c(-c2ccc(Cl)cc2)c1[C@H](OC(C)(C)C)C(=O)O [Compound 360] | 13 nM | –
Cc1cc2nc(-c3ccc4c(cnn4C4CCN(C)CC4)n3)sc2c(-c2ccc(Cl)cc2)c1[C@H](OC(C)(C)C)C(=O)O [Compound 361] | 20 nM | –
Cc1cc2nc(-c3c4cnccc4nn3C)sc2c(-c2ccc(Cl)cc2)c1[C@H](OC(C)(C)C)C(=O)O [Compound 362] | 21 nM | –
Cc1cc2nc(-c3nn(C)c4ccncc34)sc2c(-c2ccc(Cl)cc2)c1[C@H](OC(C)(C)C)C(=O)O [Compound 363] | 15 nM | –
Cc1cc2nc(-c3cc4cn(C)nc4cn3)sc2c(-c2ccc(Cl)cc2)c1[C@H](OC(C)(C)C)C(=O)O [Compound 364] | 9 nM | –
Cc1cc2nc(-c3cc4cnn(C)c4cn3)sc2c(-c2ccc(Cl)cc2)c1[C@H](OC(C)(C)C)C(=O)O [Compound 365] | 29 nM | –
